The inhibition is the change of the read-out against control, counted positive when it falls.

Assay [1] has as its target T1, rat adrenergic α1A receptor (Rattus norvegicus, UniProt P43140).
T1 construct: rat adrenergic α1A receptor obtained from Wistar Rat submaxillary glands; from tissue; host or cells: Wistar rat submaxillary glands
T1 sequence (P43140 1-466): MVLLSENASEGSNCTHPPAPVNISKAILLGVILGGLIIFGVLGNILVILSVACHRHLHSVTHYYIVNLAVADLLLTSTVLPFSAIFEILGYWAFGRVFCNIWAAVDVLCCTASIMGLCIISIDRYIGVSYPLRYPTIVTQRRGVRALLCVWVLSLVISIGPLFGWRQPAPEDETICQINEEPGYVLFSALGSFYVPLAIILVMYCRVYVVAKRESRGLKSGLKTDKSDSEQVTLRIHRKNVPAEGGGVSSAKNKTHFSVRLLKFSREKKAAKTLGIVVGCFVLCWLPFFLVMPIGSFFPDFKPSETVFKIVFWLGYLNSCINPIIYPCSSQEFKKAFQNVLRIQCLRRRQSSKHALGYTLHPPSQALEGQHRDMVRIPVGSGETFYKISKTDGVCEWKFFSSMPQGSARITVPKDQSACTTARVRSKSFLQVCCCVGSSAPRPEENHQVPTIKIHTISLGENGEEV
Nature of the assay: Adrenergic α1A radioligand binding ([3H]Prazosin). Conditions: read-out: Adrenergic (0.1 μM) a1A, percent inhibition of specific binding; compound at 0.1 μM; 0.25 nM [3H]Prazosin. A digest of the protocol:
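Wistar rat submaxillary gland receptor in 50 mM Tris-HCl pH 7.4 with 0.5 mM EDTA, incubated with compound and 0.25 nM [3H]Prazosin for 60 min at 25 °C.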

The target of assay [2] is T2, human recombinant adrenergic α2C receptor (Homo sapiens, UniProt P18825).
T2 construct: expressed in transfected cells; host or cells: insect Sf9 cells
T2 sequence (P18825 1-462): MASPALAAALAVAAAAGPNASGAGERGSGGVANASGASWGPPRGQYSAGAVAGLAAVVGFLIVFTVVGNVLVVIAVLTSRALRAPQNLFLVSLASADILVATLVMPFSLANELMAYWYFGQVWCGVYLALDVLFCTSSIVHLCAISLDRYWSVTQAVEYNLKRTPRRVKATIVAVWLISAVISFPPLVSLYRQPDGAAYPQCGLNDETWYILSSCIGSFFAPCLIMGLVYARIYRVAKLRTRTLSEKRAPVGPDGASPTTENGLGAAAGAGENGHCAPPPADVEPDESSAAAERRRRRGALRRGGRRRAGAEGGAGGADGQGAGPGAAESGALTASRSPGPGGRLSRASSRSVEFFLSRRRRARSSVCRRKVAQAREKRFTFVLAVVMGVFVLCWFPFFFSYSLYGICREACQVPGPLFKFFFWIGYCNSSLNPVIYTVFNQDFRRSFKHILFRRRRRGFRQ
Nature of the assay: Adrenergic α2C radioligand binding ([3H]MK-912). As to conditions: read-out: Adrenergic (0.1 μM) a2C, percent inhibition of specific binding; compound at 0.1 μM; 1 nM [3H]MK-912. A digest of the protocol: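 Membranes from Sf9 cells expressing the human receptor, in 50 mM Tris-HCl pH 7.4 with 12.5 mM MgCl2 and 2 mM EDTA, incubated with compound and 1 nM [3H]MK-912 for 60 min at 25 °C. Non-specific binding defined with 10 μM WB-4101. Filter-bound radioactivity counted; percent inhibition of specific binding reported.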

Assay [3] concerns the target T3, human recombinant serotonin (5-Hydroxytryptamine) 5-HT2C receptor (Homo sapiens, UniProt P28335).
T3 construct: expressed in transfected cells; host or cells: CHO-K1
T3 sequence (P28335 33-458): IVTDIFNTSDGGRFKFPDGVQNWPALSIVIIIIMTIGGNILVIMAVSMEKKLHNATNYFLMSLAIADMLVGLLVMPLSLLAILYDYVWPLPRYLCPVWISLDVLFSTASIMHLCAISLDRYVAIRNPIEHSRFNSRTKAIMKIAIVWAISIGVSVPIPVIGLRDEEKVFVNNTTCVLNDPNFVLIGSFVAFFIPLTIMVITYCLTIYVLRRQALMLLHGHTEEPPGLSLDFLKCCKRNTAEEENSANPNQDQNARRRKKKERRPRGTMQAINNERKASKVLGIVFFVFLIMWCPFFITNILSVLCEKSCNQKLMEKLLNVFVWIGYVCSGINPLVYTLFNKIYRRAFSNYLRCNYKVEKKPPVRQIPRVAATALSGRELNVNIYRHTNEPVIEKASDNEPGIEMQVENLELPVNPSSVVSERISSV
As to the kind of experiment: Serotonin 5-HT2C radioligand binding ([3H]Mesulergine). Conditions: compound at 0.1 μM; read-out: Inhibition of ligand binding, Serotonin 5-HT2C (percent inhibition of specific binding). As for the experimental part:
Compounds of the invention were incubated with 1 nM [^3H]Mesulergine for 60 min at 25° C. Non-specific binding was estimated in the presence of 1 μM Mianserin. Receptor proteins were filtered and washed, the filters were then counted to determine [^3H]Mesulergine specifically bound.

For assay [4], the target named is T4, human recombinant serotonin (5-Hydroxytryptamine) 5-HT5A receptor (Homo sapiens, UniProt P47898).
T4 construct: expressed in transfected cells; host or cells: CHO-K1
Nature of the assay: Serotonin 5-HT5A radioligand binding ([3H]LSD). Conditions: compound at 0.1 μM; read-out: Inhibition of ligand binding, Serotonin 5-HT5A (percent inhibition of specific binding). As for the experimental part: Compounds of the invention were incubated with 1.7 nM [^3H]Lysergic acid diethylamide (LSD) for 60 min at 37° C. […] Receptor proteins were filtered and washed, the filters were counted to determine [^3H]LSD specifically bound.

For assay [5], the target named is T5, human recombinant serotonin (5-Hydroxytryptamine) 5-HT7 receptor (Homo sapiens, UniProt P34969).
T5 construct: expressed in transfected cells; host or cells: CHO
As to the kind of experiment: Serotonin 5-HT7 radioligand binding ([3H]LSD). As to conditions: compound at 0.1 μM; read-out: Inhibition of ligand binding, Serotonin 5-HT7 (percent inhibition of specific binding). As for the experimental part:
Lysergic acid diethylamide (LSD) for 120 min. at 25° C. […] Receptor proteins were filtered and washed, the filters were then counted to determine [^3H]LSD specifically bound.

T5 sequence (P34969 whole entry): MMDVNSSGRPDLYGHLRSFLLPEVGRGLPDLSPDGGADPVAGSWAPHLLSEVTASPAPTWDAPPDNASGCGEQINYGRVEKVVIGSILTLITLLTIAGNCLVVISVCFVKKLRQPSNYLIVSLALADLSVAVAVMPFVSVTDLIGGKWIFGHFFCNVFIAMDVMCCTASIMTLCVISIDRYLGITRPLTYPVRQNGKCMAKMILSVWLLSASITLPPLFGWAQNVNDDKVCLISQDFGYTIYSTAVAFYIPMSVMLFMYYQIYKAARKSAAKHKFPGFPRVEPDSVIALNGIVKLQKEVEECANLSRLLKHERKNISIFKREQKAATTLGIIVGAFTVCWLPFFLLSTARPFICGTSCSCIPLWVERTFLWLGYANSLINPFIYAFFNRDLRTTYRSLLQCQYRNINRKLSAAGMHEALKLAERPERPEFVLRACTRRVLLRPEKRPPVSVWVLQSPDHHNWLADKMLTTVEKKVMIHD
T4 sequence (P47898 whole entry): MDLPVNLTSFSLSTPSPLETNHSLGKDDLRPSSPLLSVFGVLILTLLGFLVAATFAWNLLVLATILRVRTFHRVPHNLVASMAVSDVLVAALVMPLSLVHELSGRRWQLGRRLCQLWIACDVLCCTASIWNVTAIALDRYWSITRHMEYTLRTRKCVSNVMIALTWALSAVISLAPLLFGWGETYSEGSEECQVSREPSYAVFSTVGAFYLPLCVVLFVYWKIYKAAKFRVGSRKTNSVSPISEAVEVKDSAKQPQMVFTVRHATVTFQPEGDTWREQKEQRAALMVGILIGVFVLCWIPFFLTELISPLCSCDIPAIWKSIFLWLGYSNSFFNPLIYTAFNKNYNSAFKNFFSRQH

Consider `Cc1ccc2c(c1)c1c(n2-c2cccc(-c3ccc(S(C)(=O)=O)cc3)c2)CCN(C)C1` [Compound No. 131, 2,8-dimethyl-5-(4′-(methylsulfonyl)biphenyl-3-yl)-2,3,4,5-tetrahydro-1H-pyrido[4,3-b]indole], for which the inhibition at 0.1 µM in assay [1] is 0%; in assay [2] it was 13%; in assay [3], -6%; in assay [4], 19%; in assay [5], 2%.

Take `Cc1ccc2c(c1)c1c(n2-c2ccc(-c3cnn(C)c3)cn2)CCN(C)C1` [Compound No. 134, 2,8-dimethyl-5-(5-(1-methyl-1H-pyrazol-4-yl)pyridin-2-yl)-2,3,4,5-tetrahydro-1H-pyrido[4,3-b]indole]: the inhibition at 0.1 µM in assay [1] was -2%; in assay [2], -2%; in assay [3], 96%; in assay [4] it was -4%; in assay [5], 4%.

On to `Cc1ccc2c(c1)c1c(n2-c2ccc(-c3sccc3C)cn2)CCN(C)C1` [Compound No. 148, 2,8-dimethyl-5-(5-(3-methylthiophen-2-yl)pyridin-2-yl)-2,3,4,5-tetrahydro-1H-pyrido[4,3-b]indole], for which the inhibition at 0.1 µM in assay [1] was 20%; in assay [2], 4%; in assay [3], 88%; in assay [4] it was 50%; in assay [5], 35%.

For the compound `Cc1ccc2c(c1)c1c(n2-c2cccc(-c3cc4ccccc4s3)c2)CCN(C)C1` [Compound 51, 5-(3-(benzo[b]thiophen-2-yl)phenyl)-2,8-dimethyl-2,3,4,5-tetrahydro-1H-pyrido[4,3-b]indole], the inhibition at 0.1 µM is -6% in assay [1]; -9% in assay [2]; 55% in assay [3]; 5% in assay [4]; 13% in assay [5].

For the compound `Cc1ccc2c(c1)c1c(n2-c2ccc(-c3cncc4ccccc34)cn2)CCN(C)C1` [Compound No. 135, 5-(5-(isoquinolin-4-yl)pyridin-2-yl)-2,8-dimethyl-2,3,4,5-tetrahydro-1H-pyrido[4,3-b]indole], the inhibition at 0.1 µM is 36% in assay [1]; 13% in assay [2]; 88% in assay [3]; 77% in assay [4]; 22% in assay [5].

Consider `Cc1ccc2c(c1)c1c(n2-c2ccc3nc(C)ccc3c2)CCN(C)C1` [Compound No. 157, 2,8-dimethyl-5-(2-methyl-quinolin-6-yl)-2,3,4,5-tetrahydro-1H-pyrido[4,3-b]indole], for which the inhibition at 0.1 µM was 7% in assay [1]; -1% in assay [2]; 88% in assay [3]; 20% in assay [4]; 16% in assay [5].

In the case of `Cc1ccc2c(c1)c1c(n2-c2ccc3cnccc3c2)CCN(C)C1` [Compound 38], the inhibition at 0.1 µM turned out to be 36% in assay [1]; 11% in assay [2]; 88% in assay [3]; 29% in assay [4]; 33% in assay [5].

Turning to `COc1ccc(-c2cscc2-n2c3c(c4cc(C)ccc42)CN(C)CC3)cc1` [Compound 37], the inhibition at 0.1 µM in assay [1] turned out to be 82%; in assay [2], 72%; in assay [3], 81%; in assay [4], 94%; in assay [5], 100%.

With `Cc1csc(-c2cscc2-n2c3c(c4cc(C)ccc42)CN(C)CC3)c1` [Compound 50], the inhibition at 0.1 µM was found to be 65% in assay [1]; 90% in assay [2]; 92% in assay [3]; 81% in assay [4]; 97% in assay [5].

As to `CNC(=O)c1ccc(-c2ccccc2-n2c3c(c4cc(C)ccc42)CN(C)CC3)cc1` [Compound No. 72, 2′-(2,8-dimethyl-3,4-dihydro-1H-pyrido[4,3-b]indol-5(2H)-yl)-N-methylbiphenyl-4-carboxamide], the inhibition at 0.1 µM in assay [1] came out at 36%; in assay [2] it was 1%; in assay [3], 16%; in assay [4] it was 14%; in assay [5], 30%.

With `Cc1ccc2c(c1)c1c(n2-c2ccc(-c3ccc(S(N)(=O)=O)cc3)cn2)CCN(C)C1` [Compound No. 145, 4-(6-(2,8-dimethyl-3,4-dihydro-1H-pyrido[4,3-b]indol-5(2H)-yl)pyridin-3-yl)benzenesulfonamide], the inhibition at 0.1 µM in assay [1] came out at 44%; in assay [2], 6%; in assay [3], 66%; in assay [4], 15%; in assay [5] it was 32%.

Regarding `CC(=O)Nc1ccc(-c2ccccc2-n2c3c(c4cc(C)ccc42)CN(C)CC3)cn1` [Compound No. 83, N-(5-(2-(2,8-dimethyl-3,4-dihydro-1H-pyrido[4,3-b]indol-5(2H)-yl)phenyl)pyridin-2-yl)acetamide], the inhibition at 0.1 µM in assay [1] was 23%; in assay [2], -5%; in assay [3], 15%; in assay [4] it was 11%; in assay [5] it was 15%.

`Cc1ccc2c(c1)c1c(n2-c2cccc(-c3ccnn3C)c2)CCN(C)C1` [Compound No. 66, 2,8-dimethyl-5-(3-(1-methyl-1H-pyrazol-5-yl)phenyl)-2,3,4,5-tetrahydro-1H-pyrido[4,3-b]indole]: the inhibition at 0.1 µM turned out to be 1% in assay [1]; 8% in assay [2]; 55% in assay [3]; 36% in assay [4]; 32% in assay [5].

On to `Cc1ccc2c(c1)c1c(n2-c2ccc(-c3ccncc3)cn2)CCN(C)C1` [Compound No. 132, 5-(3,4′-bipyridin-6-yl)-2,8-dimethyl-2,3,4,5-tetrahydro-1H-pyrido[4,3-b]indole], for which the inhibition at 0.1 µM is 11% in assay [1]; -2% in assay [2]; 77% in assay [3]; 2% in assay [4]; 23% in assay [5].

The record behind these values is US9187471B2, “Pyrido [4,3-b] indole and pyrido [3,4-b] indole derivatives and methods of use” (Medivation Technologies, Inc., priority 2010, dated 2015).
